# Source: ChEMBL document CHEMBL1201862, “PubChem BioAssay data set” (2004)
# Values joined by “and” are separate entries in the source; they are usually repeats but may differ in a detail not shown here. Equal entries are not always repeated. Active and inactive are the calls of the source.
# Experiments:
# [1] = target: RNA-editing ligase 1, mitochondrial (Trypanosoma brucei brucei, UniProt P86926); experiment: TbREL1 ligase inhibitors, dose response, biochemical, fluorescence, Trypanosoma brucei (AID 1117295); format: functional
# [2] = target: Lysosomal acid glucosylceramidase (Homo sapiens, UniProt P04062); experiment: Dose response cell-based high throughput screening assay to identify enhancers of beta-glucosidase activity. [Related pubchem assays: 784 ]; format: functional
# [3] = target: T1, Apoptotic protease-activating factor 1 (Homo sapiens, UniProt O14727); format: functional
# T1 sequence (O14727 whole entry): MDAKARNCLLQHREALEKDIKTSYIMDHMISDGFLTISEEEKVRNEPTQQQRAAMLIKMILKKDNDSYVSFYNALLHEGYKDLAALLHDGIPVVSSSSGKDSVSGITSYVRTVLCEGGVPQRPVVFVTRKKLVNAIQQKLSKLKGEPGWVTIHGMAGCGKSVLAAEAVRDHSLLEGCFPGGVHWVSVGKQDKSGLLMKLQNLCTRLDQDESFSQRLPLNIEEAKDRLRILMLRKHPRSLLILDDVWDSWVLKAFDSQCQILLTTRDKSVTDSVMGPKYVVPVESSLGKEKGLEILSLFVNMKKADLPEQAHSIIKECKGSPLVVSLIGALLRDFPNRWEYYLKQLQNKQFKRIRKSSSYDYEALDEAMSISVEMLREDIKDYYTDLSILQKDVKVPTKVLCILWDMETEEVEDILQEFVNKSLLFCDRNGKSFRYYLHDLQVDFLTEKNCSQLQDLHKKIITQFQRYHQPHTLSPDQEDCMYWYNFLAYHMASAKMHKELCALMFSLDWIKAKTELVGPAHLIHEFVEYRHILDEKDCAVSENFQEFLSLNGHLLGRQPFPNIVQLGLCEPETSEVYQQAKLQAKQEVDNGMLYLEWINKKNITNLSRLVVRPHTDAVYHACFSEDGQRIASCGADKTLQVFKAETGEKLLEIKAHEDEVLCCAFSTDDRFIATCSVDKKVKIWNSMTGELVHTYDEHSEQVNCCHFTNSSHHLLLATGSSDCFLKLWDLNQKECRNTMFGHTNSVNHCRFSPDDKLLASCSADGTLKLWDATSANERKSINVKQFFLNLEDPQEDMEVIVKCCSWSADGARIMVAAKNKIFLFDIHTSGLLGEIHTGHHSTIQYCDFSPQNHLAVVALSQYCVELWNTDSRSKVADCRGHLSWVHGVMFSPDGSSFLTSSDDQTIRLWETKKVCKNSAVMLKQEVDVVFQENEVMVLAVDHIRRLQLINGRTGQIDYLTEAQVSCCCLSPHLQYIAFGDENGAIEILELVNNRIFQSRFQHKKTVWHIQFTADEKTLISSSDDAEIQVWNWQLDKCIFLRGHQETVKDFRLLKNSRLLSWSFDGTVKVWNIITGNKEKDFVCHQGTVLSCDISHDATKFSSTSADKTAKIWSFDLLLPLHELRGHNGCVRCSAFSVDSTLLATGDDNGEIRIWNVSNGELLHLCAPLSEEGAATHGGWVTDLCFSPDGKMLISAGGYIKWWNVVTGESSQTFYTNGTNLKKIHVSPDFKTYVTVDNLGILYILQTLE
# [4] = HEp-2 cell cytotoxicity, dose response, cytotoxicity control for RSV inhibitor project, HTS (AID 2410); format: functional; settings: human respiratory syncytial virus
# [5] = target: DNA damage-inducible transcript 3 protein (Mus musculus, UniProt P35639); format: functional, Cricetulus griseus
# Aspartyl aminopeptidase = target: T2, Aspartyl aminopeptidase (Plasmodium falciparum 3D7, UniProt Q8I2J3)
# T2 sequence (Q8I2J3 whole entry): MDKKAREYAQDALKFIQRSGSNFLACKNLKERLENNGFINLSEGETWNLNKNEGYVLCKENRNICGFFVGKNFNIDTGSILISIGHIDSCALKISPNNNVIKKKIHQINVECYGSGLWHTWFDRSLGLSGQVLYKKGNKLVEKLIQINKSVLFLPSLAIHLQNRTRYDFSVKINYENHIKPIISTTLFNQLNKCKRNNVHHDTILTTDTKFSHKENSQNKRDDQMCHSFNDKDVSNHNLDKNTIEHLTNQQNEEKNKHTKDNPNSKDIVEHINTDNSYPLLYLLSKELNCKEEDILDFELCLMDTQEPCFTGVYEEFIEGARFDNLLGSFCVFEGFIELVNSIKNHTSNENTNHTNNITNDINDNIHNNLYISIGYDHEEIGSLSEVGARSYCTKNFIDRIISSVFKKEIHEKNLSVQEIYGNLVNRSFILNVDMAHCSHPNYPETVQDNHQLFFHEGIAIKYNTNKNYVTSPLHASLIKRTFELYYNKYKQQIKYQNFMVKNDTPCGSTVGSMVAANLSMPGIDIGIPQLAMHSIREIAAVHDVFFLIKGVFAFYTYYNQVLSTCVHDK
# [6] = growth suppression of beta-catenin-knockout colon cells, dose response, cell-based, HCT116, human colon tumor (AID 1045); format: functional;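 also: HCT116 colon tumor cells with beta catenin knocked out; cells exposed to compound for 60 hours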
# [7] = target: T3, RNA-binding protein pos-1 (Caenorhabditis elegans, UniProt G5EF15); experiment: inhibitors of POS-1/mex-3 RNA binding, dose response, biochemical, fluorescence polarization (AID 1964);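 also: purified POS-1 fused to maltose binding protein made in E. coli; potency of compounds blocking POS-1 binding to fluorescent RNA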
# T3 sequence (G5EF15 whole entry): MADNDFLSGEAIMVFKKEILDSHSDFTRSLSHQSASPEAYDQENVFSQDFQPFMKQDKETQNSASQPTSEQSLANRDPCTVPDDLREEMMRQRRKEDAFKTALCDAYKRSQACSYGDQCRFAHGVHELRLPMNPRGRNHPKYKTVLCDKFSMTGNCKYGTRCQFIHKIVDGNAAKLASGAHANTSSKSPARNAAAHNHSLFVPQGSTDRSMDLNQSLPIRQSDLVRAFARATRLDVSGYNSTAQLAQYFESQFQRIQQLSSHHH
# Large T antigen = Large T antigen (Simian virus 40, UniProt P03070); format: functional, Betapolyomavirus macacae;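 also: Confirmatory-stage PubChem screen for compounds that inhibit SV40 T antigen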
# Procathepsin L = Procathepsin L (Homo sapiens, UniProt P07711)
# [8] = growth suppression of PTEN-null colon cells, dose response, cell-based, HCT116 PTEN knockout (AID 1047); format: functional;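 also: HCT116 colon tumor cells with PTEN knocked out; cells exposed to compound for 60 hours before readout; potency for loss of cell viability measured by luminescence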
# [9] = target: T4, Zinc finger protein mex-5 (Caenorhabditis elegans, UniProt Q9XUB2); experiment: MEX-5/TCR-2 RNA interaction inhibitors, dose response, biochemical, C. elegans, fluorescence polarization (AID 1960)
# T4 sequence (Q9XUB2 whole entry): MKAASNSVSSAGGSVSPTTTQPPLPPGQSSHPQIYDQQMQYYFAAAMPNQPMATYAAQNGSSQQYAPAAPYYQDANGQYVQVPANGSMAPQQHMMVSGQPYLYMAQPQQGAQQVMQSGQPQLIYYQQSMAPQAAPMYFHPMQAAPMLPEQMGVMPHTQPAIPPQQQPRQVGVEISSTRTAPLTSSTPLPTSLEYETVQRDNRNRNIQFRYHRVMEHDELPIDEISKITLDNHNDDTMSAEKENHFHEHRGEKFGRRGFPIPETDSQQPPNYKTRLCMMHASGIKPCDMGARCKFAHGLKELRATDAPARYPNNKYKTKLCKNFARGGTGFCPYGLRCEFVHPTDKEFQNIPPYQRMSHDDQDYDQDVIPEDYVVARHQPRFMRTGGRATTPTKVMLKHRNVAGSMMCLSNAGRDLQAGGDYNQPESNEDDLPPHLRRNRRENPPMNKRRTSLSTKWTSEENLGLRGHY
# [10] = target: FAD-linked sulfhydryl oxidase ALR (Homo sapiens, UniProt P55789); experiment: inhibitors of human ALR sulfhydryl oxidase, dose response, biochemical, H2O2 detection, luminescence, cherry-pick (AID 493248)
# [11] = target: T5, Runt-related transcription factor 1/Core-binding factor subunit beta (Homo sapiens, UniProt Q01196+Q13951); experiment: inhibitors of RUNX1 Runt–CBFb-SMMHC binding, primary screen, biochemical, FRET, Cerulean-Runt, Venus-CBFb-SMMHC, uHTS (AID 1434); format: protein assay;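 also: partner is the CBFb-SMMHC leukemia fusion protein rather than wild-type CBFb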
# [12] = target: T5, Runt-related transcription factor 1/Core-binding factor subunit beta; experiment: inhibitors of RUNX1 Runt–CBFb-SMMHC binding, biochemical, TR-FRET (AID 1438); format: protein assay
# Vero = experiment: cells; format: functional; settings: Chlorocebus sabaeus
# [13] = system: Streptococcus sp. 'group A'; experiment: growth inhibition of control SK(-) GAS strain, dose response, counter-screen for streptokinase expression inhibitor project, luminescence, kanamycin, BacTiterGlo, confirmation (AID 1900); format: functional, organism-based
# Streptokinase A = target: T6, Streptokinase A (Streptococcus pyogenes serotype M1, UniProt P10520); experiment: S. pyogenes streptokinase expression inhibitors, potency, dose response, plasminogen activation absorbance, OD405 (AID 1914); format: functional, Streptococcus pyogenes M1 GAS;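 also: secreted streptokinase activity via plasminogen activation per viability signal from cell pellet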
# T6 sequence (P10520 whole entry): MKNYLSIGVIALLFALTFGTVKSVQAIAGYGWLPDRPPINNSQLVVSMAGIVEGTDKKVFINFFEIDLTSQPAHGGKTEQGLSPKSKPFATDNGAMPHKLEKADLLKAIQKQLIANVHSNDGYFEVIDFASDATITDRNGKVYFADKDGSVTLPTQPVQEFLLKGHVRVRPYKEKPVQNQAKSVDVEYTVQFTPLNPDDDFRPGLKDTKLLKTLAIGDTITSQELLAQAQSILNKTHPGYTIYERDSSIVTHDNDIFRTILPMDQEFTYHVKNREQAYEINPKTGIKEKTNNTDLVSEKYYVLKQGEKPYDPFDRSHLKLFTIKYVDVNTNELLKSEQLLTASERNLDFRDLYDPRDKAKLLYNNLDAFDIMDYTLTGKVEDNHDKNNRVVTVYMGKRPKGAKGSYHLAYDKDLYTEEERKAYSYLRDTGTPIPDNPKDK
# Streptococcus = experiment: Group A Streptococcus viability loss, dose response, counter-screen for streptokinase expression inhibitor project, luminescence, BacTiterGlo (AID 1915); format: functional, organism-based;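 also: potency for reduction of bacterial viability or growth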
# Troponin, cardiac muscle = Troponin, cardiac muscle (Homo sapiens, UniProt P19429+P45379+P63316); experiment: Fluorescence-based biochemical high throughput dose response assay for activators of the calcium sensitivity of cardiac Regulated Thin Filaments (RTF). [Related pubchem assays (depositor defined):AID493008, AID493018, AID504382, AID504383]; format: protein-complex assay
# [14] = cytotoxicity in HEK-293T cells, dose response, cytotoxicity control for BCR NF-kB inhibitor project, luminescence, B-cell screen hits (AID 489021); format: functional, cell-based;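 also: HEK-293T cells carrying an NF-kB luciferase reporter; cells exposed to compound for about 14 hours before viability readout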
# X-box-binding protein 1 = X-box-binding protein 1 (Homo sapiens, UniProt P17861); format: functional, Cricetulus griseus;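 also: confirmatory dose-response counter-screen serving a CHOP assay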
# Cytochrome P450 1A2 = target: T7, Cytochrome P450 1A2 (Homo sapiens, UniProt P05177);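 also: PubChem cytochrome P450 panel assay, CYP1A2 panel member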
# T7 sequence (P05177 whole entry): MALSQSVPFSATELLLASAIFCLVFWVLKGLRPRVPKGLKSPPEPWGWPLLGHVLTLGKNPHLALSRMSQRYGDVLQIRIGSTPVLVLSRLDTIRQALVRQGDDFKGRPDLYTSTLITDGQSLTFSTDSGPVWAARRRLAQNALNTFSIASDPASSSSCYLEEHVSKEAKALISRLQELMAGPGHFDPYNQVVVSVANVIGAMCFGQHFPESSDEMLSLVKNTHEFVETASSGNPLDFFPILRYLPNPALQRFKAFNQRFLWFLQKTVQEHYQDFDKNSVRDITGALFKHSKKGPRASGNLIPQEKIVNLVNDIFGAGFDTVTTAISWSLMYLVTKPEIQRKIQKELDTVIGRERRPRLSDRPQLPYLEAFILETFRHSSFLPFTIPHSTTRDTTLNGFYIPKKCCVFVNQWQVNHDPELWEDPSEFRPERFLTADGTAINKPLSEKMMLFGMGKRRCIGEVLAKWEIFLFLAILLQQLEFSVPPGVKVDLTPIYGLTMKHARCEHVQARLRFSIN
# [15] = Luminescence Cell-Based Dose Retest to Confirm Inhibitors of Cancer Stem Cells. [Related pubchem assays (depositor defined):AID2717, AID2721]; format: functional; settings: Homo sapiens
# Cytochrome P450 3A4 = Cytochrome P450 3A4 (Homo sapiens, UniProt P08684);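 also: CYP3A4 tested as one member of a cytochrome P450 panel screen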
# [16] = cytotoxicity in HPDE-C7 cells, cell-based, fluorescence, HTS (AID 430); format: functional; settings: Homo sapiens
# [17] = cytotoxicity in KRAS-transformed pancreatic duct cells, primary screen, cell-based, fluorescence, HTS (AID 431); format: functional; settings: Homo sapiens;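 also: cell line used: HPDE-C7K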
smiles,measurement,setting,value
CCC(C)NC(=O)c1c(N)n(CC2CCCO2)c2nc3ccccc3nc12 (centres undefined),IC50,[1],27.7 µM (inactive)
same,EC50,[2],> 50 µM (not active)
same,IC50,[3],18.8 µM (active)
same,CC50,[4],20.3 µM (active)
same,Absolute IC50 (CHOP),[5],10 µM
Oc1ccc(O)c(-c2cnns2)c1,IC50,Aspartyl aminopeptidase,1.89 µM (active)
same,EC50,[6],365 µM (active)
same,EC50,[7],> 300 µM (not active)
same,IC50,Large T antigen,10 µM (active)
same,IC50,Procathepsin L,> 59.6 µM (not active)
same,EC50,[8],47.1 µM (active)
same,EC50,[9],6.91 µM (active)
same,AC50,[10],4.57 µM (active)
same,IC50,[11],33.8 µM (active)
same,IC50,[12],20.5 µM (active)
Cc1cc(=O)oc2c3c4c(cc12)OCCN4CCC3,IC50,[11],< 0.195 µM (inactive)
same,IC50,[12],> 100 µM (inactive)
O=C(CN1c2ccccc2Sc2ccccc21)NNC(=O)Nc1cccc(Cl)c1,CC50,Vero,19 µM (active)
same,EC50,[13],4.41 µM (active)
same,EC50,Streptokinase A,> 150 µM (not active)
same,EC50,Streptococcus,18.5 µM (active)
same,Absolute IC50 (CHOP),[5],10 µM
O=C(Nc1ccc(Cl)cn1)C1COc2ccccc2O1 (centres undefined),EC50,"Troponin, cardiac muscle",> 71.5 µM (inactive)
CCOc1ccc(-c2nnc(SCC(=O)NC3CC3)o2)cc1,IC50,[14],> 80 µM (inactive)
Fc1ccc(-c2n[nH]cc2CN(CC2CCC2)CC2CCCO2)c(F)c1 (centres undefined),EC50,"Troponin, cardiac muscle",> 71.5 µM (inactive)
C(=N\Nc1nc(Nc2ccccc2)nc(Nc2ccccc2)n1)/c1cccnc1,IC50,[14],41.3 µM (inactive)
O=c1[nH]c2ccccc2n1C1CCN(CCCC(c2ccc(F)cc2)c2ccc(F)cc2)CC1 [PIMOZIDE],EC50,[6],7.54 µM (active)
same,Absolute IC50 (XBP1),X-box-binding protein 1,< 10 µM
same,AC50,Cytochrome P450 1A2,31.6 µM (inconclusive) and 15.8 µM (inconclusive)
same,EC50,[8],6.38 µM (active)
same,AC50,[15],3.79 µM (active)
same,AC50,Cytochrome P450 3A4,inconclusive
same,EC50,[16],13.6 µM (active)
same,EC50,[17],18.9 µM (active)
